Measured values reported in patent publication US10570129B2 (Zoetis Services LLC, priority 2015, dated 2020).

What was measured:
Haemonchus contortus L3 = assay: microbe, parasite or virus in culture; assay type: cell-based; settings: Haemonchus contortus, 96 h, read-out: HcL3 Minimal Effective Concentration (MEC)
D. immitis microfilariae = assay: Dirofilaria immitis, microfilariae (DiMF) in vitro motility assay; assay type: cell-based; settings: Dirofilaria immitis, 72 h, read-out: DiMF minimally effective dose (MEC)

Structure (SMILES) | minimal effective concentration (Haemonchus contortus L3) [µM] | minimal effective concentration (D. immitis microfilariae) [µM]
O=C(NCc1ccnc(Cl)c1)n1c2c(c3ccc(OC(F)(F)F)cc31)CN(C/C=C/c1ccc(Cl)c(Cl)c1)CC2 [Example 355, (E)-N-((2-chloropyridin-4-yl)methyl)-2-(3-(3,4-dichlorophenyl)allyl)-7-(trifluoromethoxy)-1,2,3,4-tetrahydro-5H-pyrido[4,3-b]indole-5-carboxamide] | 1 | 69.1
O=C(NCc1ccnc(Cl)c1)n1c2c(c3ccc(Cl)cc31)CN(C/C=C/c1ccc(F)cc1)CC2 [Example 217, (E)-7-chloro-N-((2-chloropyridin-4-yl)methyl)-2-(3-(4-fluorophenyl)allyl)-1,2,3,4-tetrahydro-5H-pyrido[4,3-b]indole-5-carboxamide] | 1.8 | 3.3
N#Cc1ccc(/C=C/CN2CCc3c(c4cc(F)ccc4n3C(=O)NCc3ccnc(Cl)c3)C2)cc1 [Example 168, (E)-N-((2-chloropyridin-4-yl)methyl)-2-(3-(4-cyanophenyl)allyl)-8-fluoro-1,2,3,4-tetrahydro-5H-pyrido[4,3-b]indole-5-carboxamide] | 0.5 | 10
N#Cc1ccc2c(c1)c1c(n2C(=O)NCc2ccnc(Cl)c2)CCN(C/C=C/c2cc(Br)ccc2F)C1 [Example 78, (E)-2-(3-(5-bromo-2-fluorophenyl)allyl)-N-((2-chloropyridin-4-yl)methyl)-8-cyano-1,2,3,4-tetrahydro-5H-pyrido[4,3-b]indole-5-carboxamide] | 0.6 | > 100
CCOc1ccc2c(c1)c1c(n2C(=O)NCc2ccnc(Cl)c2)CCN(C/C=C/c2ccc(Cl)cc2)C1 [Example 513, (E)-2-(3-(4-chlorophenyl)allyl)-N-((2-chloropyridin-4-yl)methyl)-8-ethoxy-1,2,3,4-tetrahydro-5H-pyrido[4,3-b]indole-5-carboxamide] | 7.6 | 3.3
O=C(NCc1ccnc(Cl)c1)n1c2c(c3ccc(Cl)cc31)CN(C/C=C/c1ccc(C(F)(F)F)cc1)CC2 [Example 223, (E)-7-chloro-N-((2-chloropyridin-4-yl)methyl)-2-(3-(4-(trifluoromethyl)-phenyl)allyl)-1,2,3,4-tetrahydro-5H-pyrido[4,3-b]indole-5-carboxamide] | 10 | 3.3
O=C(NCc1ccnc(F)c1)n1c2c(c3c(OC(F)(F)F)cccc31)CN(C/C=C/c1ccc(Cl)cc1)CC2 [Example 379a, (E)-2-(3-(4-chlorophenyl)allyl)-N-((2-fluoropyridin-4-yl)methyl)-9-(trifluoromethoxy)-1,2,3,4-tetrahydro-5H-pyrido[4,3-b]indole-5-carboxamide] | > 100 | 3.3
O=C(NCc1ccnc(Cl)c1)n1c2c(c3ccc(N4CCOCC4)cc31)CN(C/C=C/c1ccc(Cl)c(F)c1)CC2 [Example 509, (E)-2-(3-(4-chloro-3-fluorophenyl)allyl)-N-((2-chloropyridin-4-yl)methyl)-7-morpholino-1,2,3,4-tetrahydro-5H-pyrido[4,3-b]indole-5-carboxamide] | 1 | 18.2
N#Cc1cc2c(cc1F)c1c(n2C(=O)NCc2ccnc(Cl)c2)CCN(C/C=C/c2ccc(Cl)c(F)c2)C1 [Example 172, (E)-2-(3-(4-chloro-3-fluorophenyl)allyl)-N-((2-chloropyridin-4-yl)methyl)-7-cyano-8-fluoro-1,2,3,4-tetrahydro-5H-pyrido[4,3-b]indole-5-carboxamide] | 10 | > 100
N#Cc1ccc(/C=C/CN2CCc3c(c4cc(C#N)ccc4n3C(=O)NCc3ccnc(F)c3)C2)cc1 [Example 120, (E)-8-cyano-2-(3-(4-cyanophenyl)allyl)-N-((2-fluoropyridin-4-yl)methyl)-1,2,3,4-tetrahydro-5H-pyrido[4,3-b]indole-5-carboxamide] | 0.5 | > 100
CS(=O)(=O)c1ccc(/C=C/CN2CCc3c(c4cc(C#N)ccc4n3C(=O)NCc3ccnc(F)c3)C2)cc1 [Example 100, (E)-8-cyano-N-((2-fluoropyridin-4-yl)methyl)-2-(3-(4-(methylsulfonyl)-phenyl)allyl)-1,2,3,4-tetrahydro-5H-pyrido[4,3-b]indole-5-carboxamide] | > 100 | > 100
O=C(NCc1ccnc(Cl)c1)n1c2c(c3c(Cl)c(F)ccc31)CN(C/C=C/c1ccc(C(F)(F)F)cc1)CC2 [Example 308, (E)-9-chloro-N-((2-chloropyridin-4-yl)methyl)-8-fluoro-2-(3-(4-(trifluoro-methyl)phenyl)allyl)-1,2,3,4-tetrahydro-5H-pyrido[4,3-b]indole-5-carboxamide] | 10.3 | 32.1
N#Cc1ccc(/C=C/CN2CCc3c(c4cc5c(cc4n3C(=O)NCc3ccnc(Cl)c3)COC5)C2)cc1 [Example 479, (E)-N-((2-chloropyridin-4-yl)methyl)-8-(3-(4-cyanophenyl)allyl)-1,3,6,7,8,9-hexahydro-5H-furo[3,4-f]pyrido[4,3-b]indole-5-carboxamide] | 1 | > 100
O=C(NCc1ccnc(Cl)c1)n1c2c(c3cc(Cl)c(Cl)cc31)CN(C/C=C/c1ccc(OC(F)(F)F)cc1)CC2 [Example 284, (E)-7,8-dichloro-N-((2-chloropyridin-4-yl)methyl)-2-(3-(4-(trifluoro-methoxy)phenyl)allyl)-1,2,3,4-tetrahydro-5H-pyrido[4,3-b]indole-5-carboxamide] | > 100 | 10
O=C(NCc1ccnc(F)c1)n1c2c(c3cc(Cl)ccc31)CN(C/C=C/c1ccc(Cl)c(Cl)c1)CC2 [Example 261, (E)-8-chloro-2-(3-(3,4-dichlorophenyl)allyl)-N-((2-fluoropyridin-4-yl)methyl)-1,2,3,4-tetrahydro-5H-pyrido[4,3-b]indole-5-carboxamide] | 1 | 10
N#Cc1ccc(/C=C/CN2CCc3c(c4cc(Br)ccc4n3C(=O)NCc3ccnc(F)c3)C2)cc1F [Example 189, (E)-8-bromo-2-(3-(4-cyano-3-fluorophenyl)allyl)-N-((2-fluoropyridin-4-yl)methyl)-1,2,3,4-tetrahydro-5H-pyrido[4,3-b]indole-5-carboxamide] | 0.3 | 10.4
O=C(NCc1ccnc(Cl)c1)n1c2c(c3ccc(Br)cc31)CN(C/C=C/c1ccc(F)cc1F)CC2 [Example 199, (E)-7-bromo-N-((2-chloropyridin-4-yl)methyl)-2-(3-(2,4-difluorophenyl)allyl)-1,2,3,4-tetrahydro-5H-pyrido[4,3-b]indole-5-carboxamide] | 5.7 | 24.5
CSc1ccc2c(c1)c1c(n2C(=O)NCc2ccnc(Cl)c2)CCN(C/C=C/c2ccc(F)c(F)c2)C1 [Example 446, (E)-N-((2-chloropyridin-4-yl)methyl)-2-(3-(3,4-difluorophenyl)allyl)-8-(methylthio)-1,2,3,4-tetrahydro-5H-pyrido[4,3-b]indole-5-carboxamide] | 0.5 | 3.3
N#Cc1ccc(/C=C/CN2CCc3c(c4cc(Cl)c(Cl)cc4n3C(=O)NCc3ccnc(Cl)c3)C2)cc1F [Example 275, (E)-7,8-dichloro-N-((2-chloropyridin-4-yl)methyl)-2-(3-(4-cyano-3-fluorophenyl)allyl)-1,2,3,4-tetrahydro-5H-pyrido[4,3-b]indole-5-carboxamide] | 0.3 | > 100
COc1cc(CNC(=O)n2c3c(c4cc(C#N)ccc42)CN(C/C=C/c2ccc(Cl)c(F)c2)CC3)ccn1 [Example 64, (E)-2-(3-(4-chloro-3-fluorophenyl)allyl)-8-cyano-N-((2-methoxypyridin-4-yl)methyl)-1,2,3,4-tetrahydro-5H-pyrido[4,3-b]indole-5-carboxamide] | 0.5 | 3.3
O=C(NCc1ccnc(F)c1)n1c2c(c3cc(Cl)ccc31)CN(C/C=C/c1ccc(Cl)cc1)CC2 [Example 260, (E)-8-chloro-2-(3-(4-chlorophenyl)allyl)-N-((2-fluoropyridin-4-yl)methyl)-1,2,3,4-tetrahydro-5H-pyrido[4,3-b]indole-5-carboxamide] | 0.4 | 10
O=C(NCc1ccnc(Cl)c1)n1c2c(c3c(C(F)(F)F)cc(F)cc31)CN(C/C=C/c1ccc(F)cc1)CC2 [Example 324, (E)-N-((2-chloropyridin-4-yl)methyl)-7-fluoro-2-(3-(4-fluorophenyl)allyl)-9-(trifluoromethyl)-1,2,3,4-tetrahydro-5H-pyrido[4,3-b]indole-5-carboxamide] | 3.3 | 10
O=C(NCc1ccnc(Cl)c1)n1c2c(c3cc(Br)ccc31)CN(C/C=C/c1ccc(Cl)c(Cl)c1)CC2 [Example 186, (E)-8-bromo-N-((2-chloropyridin-4-yl)methyl)-2-(3-(3,4-dichlorophenyl)allyl)-1,2,3,4-tetrahydro-5H-pyrido[4,3-b]indole-5-carboxamide] | 1 | > 100
O=C(NCc1ccnc(Cl)c1)n1c2c(c3c(Cl)cccc31)CN(C/C=C/c1ccc(OC(F)(F)F)cc1)CC2 [Example 222, (E)-9-chloro-N-((2-chloropyridin-4-yl)methyl)-2-(3-(4-(trifluoromethoxy)-phenyl)allyl)-1,2,3,4-tetrahydro-5H-pyrido[4,3-b]indole-5-carboxamide] | > 100 | 10
O=C(NCc1ccnc(Cl)c1)n1c2c(c3cc(Cl)c(Cl)cc31)CN(C/C=C/c1ccc(Cl)c(F)c1)CC2 [Example 274, (E)-7,8-dichloro-2-(3-(4-chloro-3-fluorophenyl)allyl)-N-((2-chloropyridin-4-yl)methyl)-1,2,3,4-tetrahydro-5H-pyrido[4,3-b]indole-5-carboxamide] | 1.8 | 33
